Like-named read-outs stand apart in the source and are kept apart here.
Experiments:
LKR/SDH = LKR/SDH expression in transformed maize cells carrying a theophylline "off" "trans" riboswitch; assay type: cell-based; details: transformed cells treated with theophylline
Experimental: Similarly, a "trans" riboswitch is used to control expression of an endogenous target sequence (lysine ketoglutarate reductase/saccharopine dehydrogenase gene, LKR/SDH) in stably transformed maize plants. A modified transcribable DNA encoding an "off' "trans" riboswitch with theophylline as its ligand (Bayer and Smolke (2005) Nature Biotechnol., 23:337-343) is designed to target at least one region of the LKR/SDH sequence, and co-transformed into maize callus. LKR/SDH expression is assayed in the resulting transformed cells, where LKR/SDH expression is observed to be suppressed in transformed cells that are treated with theophylline.

CP4 = CP4 expression in stably transformed maize callus carrying a theophylline "off" "trans" riboswitch; assay type: cell-based; details: transformed cells treated with theophylline
From the text: "trans" riboswitches, similarly to the "cis" riboswitches described in Examples […], are useful in regulating transgenes. In a specific example, a transgenic plant including a "trans" riboswitch designed to regulate the glyphosate-resistance transgene CP4 as the target sequence is particularly useful in "trans" riboswitch-controlled applications parallel to that described in Example 23 (glyphosate as a ligand for ligand-activated herbicide resistance, or for control of herbicide resistant volunteers) and Example 24 (glyphosate as a chemical hybridization agent). To illustrate this approach, CP4 expression is suppressed in stably transformed maize callus. A modified transcribable DNA encoding an "off' "trans" riboswitch with theophylline as its ligand (Bayer and Smolke (2005) Nature Biotechnol., 23:337-343) is designed to target CP4 as a target sequence. Transcription of the theophylline riboswitch can be driven either by a pol II promoter (e. g., Figure 27A) or by pol III promoter (e. g., Figure 27B). The transcribable DNA is inserted into a binary vector (Figure 30) and co-transformed into maize callus under nptIII selection, generating stably transformed maize callus lines. CP4 expression is assayed in the transformed cells, where CP4 expression is observed to be suppressed in transformed cells that are treated with theophylline.

[1] = target: bacterial lysine riboswitches; details: in vitro, Sudarsan et al. (2003), cited from earlier work

| Compound | LKR/SDH expression (LKR/SDH) | CP4 expression (CP4) | Kd ([1]; read-out: Kd) | Kd ([1]; same value given in ppm) |
| --- | --- | --- | --- | --- |
| Cn1c(=O)c2[nH]cnc2n(C)c1=O [theophylline] | suppressed | suppressed |  |  |
| NCCCC[C@H](N)C(=O)O [lysine] |  |  | ~1000 µM | ~128 ppm |
